According to publication PMC10177590, “Canine Intestinal Organoids as a Novel In Vitro Model of Intestinal Drug Permeability: A Proof-of-Concept Study” (Cells, 2023):
Like-named read-outs stand apart in the source and are kept apart here. One block for each compound: values may come before it.

Assays:
[1] = tested on: canine-colonoid-derived monolayers; test: Bidirectional transport (Papp) across canine-colonoid-derived monolayers; format: in vitro ADME, dog; conditions: for Papp A→B / Papp B→A: Dog colonoid, read-out: Papp × 10^−6; for Papp B→A: BL→AP pH 7.4/7.4, individual wells
Protocol: (§1) After seven days of culture (Figure 3A), the 3D colonoids were harvested from the Matrigel® using the Corning™ cell recovery solution. Matrigel® plugs were dissociated by repeated pipetting after adding 500 μL of pre-chilled cell recovery solution into each well, and the plate was incubated for 30 min at 4 °C to dissolve the Matrigel®. The mixture was then transferred to a 15 mL tube and centrifuged at 100× g for 5 min at 4 °C. The organoid pellet was resuspended in 1 mL TrypLE Express and incubated at 37 °C for 10 min with shaking. To stop the TrypLE action, 6 mL of DMEM/F12 was added to the mixture before centrifugation at 100× g for 5 min at 4 °C. The supernatant was removed, and the pellet was resuspended with CMGF+ media. The harvested colonoid cell suspension was filtered through a sterile cell strainer (40 µm nylon mesh, Thermo Fisher Scientific) to obtain a single-cell suspension. The viability of dissociated cells was assessed by the trypan blue exclusion test [58, 59], and cells were counted manually using a hemocytometer (Hausser Scientific, Horsham, PA, USA). The Transwell™ inserts were pre-coated with Matrigel® (100 μg/mL; Corning®) and rat tail collagen I (30 μg/mL; Fisher Scientific) to promote adhesion, growth, and differentiation in CMGF+ media at 37 °C for 1 h. Dissociated colonoid cells (Passages #15–20) were seeded at a density of 100,000 cells/cm^2 in pre-coated inserts and allowed to grow and differentiate in the presence of CMGF+ media for 10 to 12 days before the experiments (Figure 3B). The CMGF+ culture medium was changed every other day. The structural integrity of the cell monolayer was monitored every other day for up to two weeks by phase-contrast microscopy.
(§2) All transport experiments were conducted at room temperature following the conditions outlined in earlier reports during sampling and incubation [66, 67, 68]. The culture media were aspirated from both AP (0.2 mL) and BL (0.7 mL) chambers. For both the canine colonoid and the Caco-2 monolayer, the BL chambers with HBSS buffer at pH 7.4 (0.7 mL) and the AP chambers with appropriate HBSS buffer at pH 6.8 or 7.4 (0.2 mL) (canine) or pH 6.8 (0.2 mL) (Caco-2 cells) were rinsed and equilibrated at room temperature for 30 min. Two to three wells per drug/pH/direction were used for data generation.
(§3) After Caco-2 and canine colonoid monolayers were equilibrated in the transport buffer for 30 min, the buffer was aspirated from the AP (0.2 mL) and BL (0.7 mL) chambers. The media of the AP chamber were replaced with 0.2 mL of the drug solution prepared in an appropriate transport buffer. HBSS buffer with pH 7.4 was added to the BL chambers. At pre-defined time points (15, 30, 45, 60, 90, and 120 min), samples of 100 µL buffer were collected from the receiver chamber (BL) and replaced with the same volume (i.e., 100 µL) of transport buffer at pH 7.4. For the AP side, drug concentrations of the donor solution were measured prior to introduction into the well and at the end of the study (120 min). In so doing, no buffer replacement was needed. All study samples were labeled and stored at −80 °C until further analysis.
(§4) The same procedures described above for studying AP→BL permeability were followed when studying BL→AP, with the only difference being that the donor chamber was now the BL side and the receiver chamber was now the AP side. At pre-determined time intervals (15, 30, 45, 60, 90, and 120 min), 100 µL of buffer was removed from the receiver chamber (AP) and replaced with the same volume (i.e., 100 µL) of transport buffer with the specified pH. The collected samples were stored at −80 °C until further analysis by mass spectrometry (details below).

[2] = low permeability, high solubility; cited from earlier work
[3] = parameters: method as in earlier work; conditions: ref 65 (PubChem), cited from earlier work
[4] = Bidirectional transport (Papp) across canine-colonoid-derived monolayers; format: in vitro ADME, dog; conditions: dog, Dog colonoid
Protocol: as §1, §2, §3, §4

[5] = tested on: P-gp; conditions: cited from earlier work
[6] = tested on: Caco-2 cell monolayers; test: Bidirectional transport (Papp) across Caco-2 cell monolayers; format: in vitro ADME, human
Protocol: (§5) The harvested Caco-2 cell suspension was then filtered through a sterile cell strainer (40 µm nylon mesh, Thermo Fisher Scientific) to obtain a single-cell suspension. Caco-2 cell viability and concentration were determined by a trypan blue exclusion test [57, 58]. Single Caco-2 cells (passages 50–55) were seeded at a density of 75,000 cells/cm^2 in the apical chamber of the insert and cultured in CCCM media. The culture medium in both apical and basolateral chambers was changed every other day. In the transport studies, the monolayers were utilized 18 to 20 days after plating.
as §2, §3, §4
(§6) The uncorrected Papp estimates for the three drugs of interest (Papp-uncorrected, cm/s) were calculated as follows (Equation (2)) [7]: (2) Papp-uncorrected =VR/(A×C0)×dC/dt where VR is the volume in the receiver chamber (mL), A is the surface area of the filter ( 0.33 cm^2 ), C0 is the initial drug concentration (µM) in the donor chamber, and dC/dt is the maximum slope of the line defining the cumulative drug concentration (mg/mL) vs. time (min) in the receiver compartment. […] The estimated concentrations in the receiver compartment were corrected for drug removed during prior samples.
(§7) These Papp value estimates were further corrected for the percent recovery (Rec (%)) in each well [71, 72] as follows (Equation (3)): (3) Rec (%) =mg donor hr 2+total mg receiver hr 2/mg drug introduced into the donor compartment at hr 0
(§8) The corrected Papp estimates reported herein were, therefore, calculated as follows (Equation (4)):(4) Papp= Papp−uncorrected /Rec (%)

[7] = as above; format: in vitro ADME, human; conditions: human; for Papp A→B at 120 min, 0.04 mg/mL: Caco-2, pH 6.8, 0.04 mg/mL (58.4 μM); for Papp A→B at 120 min, 0.4 mg/mL: Caco-2, pH 6.8, 0.4 mg/mL (584.1 μM); for Papp B→A at 120 min, 0.04 mg/mL: Caco-2, pH 7.4, 0.04 mg/mL (58.4 μM); for Papp B→A at 120 min, 0.4 mg/mL: Caco-2, pH 7.4, 0.4 mg/mL (584.1 μM); for Papp A→B at 120 min, 1 mg/mL: Caco-2, pH 6.8, 1 mg/mL (3380 μM); for Papp B→A at 120 min, 1 mg/mL: Caco-2, pH 7.4, 1 mg/mL (3380 μM)
Protocol: as §5, §2, §3, §4, §6, §7, §8

[8] = Human Caco-2, AP→BL pH 6.8/7.4, N = 2, read-out: Papp × 10^−6 Avg
[9] = Human Caco-2, AP→BL pH 6.8/7.4, individual wells, read-out: Papp × 10^−6
[10] = Human Caco-2, BL→AP pH 7.4/7.4, N = 2, read-out: Papp × 10^−6 Avg
[11] = Human Caco-2, BL→AP pH 7.4/7.4, individual wells, read-out: Papp × 10^−6

- drug in the receiver compartment ([1]; 2.0 mg/mL, canine colonoids, irrespective of pH or direction (AP→BL or BL→AP)): not detectable
SMILES: CC(C)NCC(O)COc1ccc(CC(N)=O)cc1 (centres unmarked) [Atenolol]
- BCS Class [2]: Class III

- Papp A→B ([1]; 0.04 mg/mL (58.4 μM), AP→BL pH 6.8/7.4, individual wells): 18.5 ×10⁻⁶ cm/s
- Papp A→B ([1]; 0.04 mg/mL (58.4 μM), AP→BL pH 7.4/7.4, individual wells): 13.5 ×10⁻⁶ cm/s
- Papp B→A ([1]; 0.04 mg/mL (58.4 μM)): 12.7 ×10⁻⁶ cm/s
- Papp A→B ([1]; 0.4 mg/mL (584.1 μM) ± FITC-dextran 200 µg/mL, AP→BL pH 6.8/7.4, individual wells): 9.1 ×10⁻⁶ cm/s
- Papp A→B ([1]; 0.4 mg/mL (584.1 μM) ± FITC-dextran 200 µg/mL, AP→BL pH 7.4/7.4, individual wells): 11.2 ×10⁻⁶ cm/s
- Papp B→A ([1]; 0.4 mg/mL (584.1 μM) ± FITC-dextran 200 µg/mL): 9.94 ×10⁻⁶ cm/s
- Papp A→B at 120 min, 0.04 mg/mL ([4]; pH 6.8, 0.04 mg/mL (58.4 μM), AP→BL pH 6.8/7.4, N = 2, read-out: Papp × 10^−6 Avg): 17.7 ×10⁻⁶ cm/s
- Papp A→B at 120 min, 0.04 mg/mL ([4]; pH 6.8, 0.04 mg/mL (58.4 μM), AP→BL pH 6.8/7.4, individual wells, read-out: Papp × 10^−6): 16.8 ×10⁻⁶ cm/s
- Papp A→B at 120 min, 0.4 mg/mL ([4]; pH 6.8, 0.4 mg/mL (584.1 μM) ± FITC-dextran 200 µg/mL, AP→BL pH 6.8/7.4, individual wells, read-out: Papp × 10^−6): 8.33 ×10⁻⁶ cm/s
- Papp A→B at 120 min, 0.4 mg/mL ([4]; pH 6.8, 0.4 mg/mL (584.1 μM) ± FITC-dextran 200 µg/mL, AP→BL pH 6.8/7.4, read-out: Papp × 10^−6 Avg): 8.72 ×10⁻⁶ cm/s
- Papp A→B at 120 min, 0.04 mg/mL ([4]; pH 7.4, 0.04 mg/mL (58.4 μM), AP→BL pH 7.4/7.4, N = 2, read-out: Papp × 10^−6 Avg): 13.5 ×10⁻⁶ cm/s
- Papp A→B at 120 min, 0.04 mg/mL ([4]; pH 7.4, 0.04 mg/mL (58.4 μM), AP→BL pH 7.4/7.4, individual wells, read-out: Papp × 10^−6): 13.4 ×10⁻⁶ cm/s
- Papp B→A at 120 min, 0.04 mg/mL ([4]; pH 7.4, 0.04 mg/mL (58.4 μM), BL→AP pH 7.4/7.4, N = 2, read-out: Papp × 10^−6 Avg): 11.9 ×10⁻⁶ cm/s
- Papp B→A at 120 min, 0.04 mg/mL ([4]; pH 7.4, 0.04 mg/mL (58.4 μM), BL→AP pH 7.4/7.4, individual wells, read-out: Papp × 10^−6): 11.2 ×10⁻⁶ cm/s
- Papp A→B at 120 min, 0.4 mg/mL ([4]; pH 7.4, 0.4 mg/mL (584.1 μM) ± FITC-dextran 200 µg/mL, AP→BL pH 7.4/7.4, individual wells, read-out: Papp × 10^−6): 9.9 ×10⁻⁶ cm/s
- Papp A→B at 120 min, 0.4 mg/mL ([4]; pH 7.4, 0.4 mg/mL (584.1 μM) ± FITC-dextran 200 µg/mL, AP→BL pH 7.4/7.4, read-out: Papp × 10^−6 Avg): 10.5 ×10⁻⁶ cm/s
- Papp B→A at 120 min, 0.4 mg/mL ([4]; pH 7.4, 0.4 mg/mL (584.1 μM) ± FITC-dextran 200 µg/mL, BL→AP pH 7.4/7.4, individual wells, read-out: Papp × 10^−6): 9.88 ×10⁻⁶ cm/s
- Papp B→A at 120 min, 0.4 mg/mL ([4]; pH 7.4, 0.4 mg/mL (584.1 μM) ± FITC-dextran 200 µg/mL, BL→AP pH 7.4/7.4, read-out: Papp × 10^−6 Avg): 9.91 ×10⁻⁶ cm/s
- Papp × 10^−6 ([6]; 0.04 mg/mL (58.4 μM), Human Caco-2, AP→BL pH 6.8/7.4, individual wells): 13.13 × 10^−6 cm/s
- Papp × 10^−6 ([6]; 0.04 mg/mL (58.4 μM), Human Caco-2, BL→AP pH 7.4/7.4, individual wells): 19.03 × 10^−6 cm/s
- Papp × 10^−6 ([6]; 0.4 mg/mL (584.1 μM), Human Caco-2, AP→BL pH 6.8/7.4, individual wells): 16.45 × 10^−6 cm/s
- Papp × 10^−6 ([6]; 0.4 mg/mL (584.1 μM), Human Caco-2, BL→AP pH 7.4/7.4, individual wells): 12.37 × 10^−6 cm/s
- Papp A→B at 120 min, 0.04 mg/mL [7, 8]: 15.3 ×10⁻⁶ cm/s
- Papp A→B at 120 min, 0.04 mg/mL [7, 9]: 17.5 ×10⁻⁶ cm/s
- Papp A→B at 120 min, 0.4 mg/mL [7, 8]: 17.9 ×10⁻⁶ cm/s
- Papp A→B at 120 min, 0.4 mg/mL [7, 9]: 19.3 ×10⁻⁶ cm/s
- Papp B→A at 120 min, 0.04 mg/mL [7, 10]: 17.7 ×10⁻⁶ cm/s
- Papp B→A at 120 min, 0.04 mg/mL [7, 11]: 16.3 ×10⁻⁶ cm/s
- Papp B→A at 120 min, 0.4 mg/mL [7, 10]: 13.1 ×10⁻⁶ cm/s
- Papp B→A at 120 min, 0.4 mg/mL [7, 11]: 13.8 ×10⁻⁶ cm/s
SMILES: COCCc1ccc(OCC(O)CNC(C)C)cc1 (centres unmarked) [Metoprolol]
- Aqueous Solubility (25 °C) ([3]; 25 °C): >1000 mg/mL
- Log P [3]: 2.15
- P-gp substrate status [5]: not a substrate for P-gp transport

- Papp A→B ([1]; 1 mg/mL (3380 μM), AP→BL pH 6.8/7.4, individual wells): 11.1 ×10⁻⁶ cm/s
- Papp A→B ([1]; 1 mg/mL (3380 μM), AP→BL pH 7.4/7.4, individual wells): 12 ×10⁻⁶ cm/s
- Papp B→A ([1]; 1 mg/mL (3380 μM)): 12 ×10⁻⁶ cm/s
- Papp A→B at 120 min, 1 mg/mL ([4]; pH 6.8, 1 mg/mL (3380 μM), AP→BL pH 6.8/7.4, N = 2, read-out: Papp × 10^−6 Avg): 11.6 ×10⁻⁶ cm/s
- Papp A→B at 120 min, 1 mg/mL ([4]; pH 6.8, 1 mg/mL (3380 μM), AP→BL pH 6.8/7.4, individual wells, read-out: Papp × 10^−6): 12.2 ×10⁻⁶ cm/s
- Papp A→B at 120 min, 1 mg/mL ([4]; pH 7.4, 1 mg/mL (3380 μM), AP→BL pH 7.4/7.4, N = 2, read-out: Papp × 10^−6 Avg): 12 ×10⁻⁶ cm/s
- Papp A→B at 120 min, 1 mg/mL ([4]; pH 7.4, 1 mg/mL (3380 μM), AP→BL pH 7.4/7.4, individual wells, read-out: Papp × 10^−6): 12 ×10⁻⁶ cm/s
- Papp B→A at 120 min, 1 mg/mL ([4]; pH 7.4, 1 mg/mL (3380 μM), BL→AP pH 7.4/7.4, N = 2, read-out: Papp × 10^−6 Avg): 11.5 ×10⁻⁶ cm/s
- Papp B→A at 120 min, 1 mg/mL ([4]; pH 7.4, 1 mg/mL (3380 μM), BL→AP pH 7.4/7.4, individual wells, read-out: Papp × 10^−6): 10.9 ×10⁻⁶ cm/s
- Papp × 10^−6 ([6]; 1 mg/mL (3380 μM), Human Caco-2, AP→BL pH 6.8/7.4, individual wells): 12.75 × 10^−6 cm/s
- Papp × 10^−6 ([6]; 1 mg/mL (3380 μM), Human Caco-2, BL→AP pH 7.4/7.4, individual wells): 12.43 × 10^−6 cm/s
- Papp A→B at 120 min, 1 mg/mL [7, 8]: 12.4 ×10⁻⁶ cm/s
- Papp A→B at 120 min, 1 mg/mL [7, 9]: 12.1 ×10⁻⁶ cm/s
- Papp B→A at 120 min, 1 mg/mL [7, 10]: 11.9 ×10⁻⁶ cm/s
- Papp B→A at 120 min, 1 mg/mL [7, 11]: 11.4 ×10⁻⁶ cm/s
SMILES: CC(C)NCC(O)COc1cccc2ccccc12 (centres unmarked) [Propranolol]
